What all share (assay): stopped-flow CO2 hydration
What all share (type): biochemical

For assay [1], the target named is T1, hCA IX (Homo sapiens, UniProt Q16790).
T1 construct: gene CA9; not described; transmembrane tumour-associated isoform
An excerpt:
stopped-flow CO2 hydration on hCA IX

Assay [2] deals with T2, hCA I (Homo sapiens, UniProt P00915).
T2 construct: gene CA1; not described; cytosolic isoform
An excerpt:
stopped-flow CO2 hydration on hCA I

In assay [3] the target is T3, hCA II (Homo sapiens, UniProt P00918).
T3 construct: gene CA2; not described; cytosolic isoform
An excerpt: stopped-flow CO2 hydration on hCA II

Assay [4] has as its target T4, hCA XII (Homo sapiens, UniProt O43570).
T4 construct: gene CA12; not described; transmembrane tumour-associated isoform
An excerpt:
stopped-flow CO2 hydration on hCA XII

T4 sequence (O43570 25-354): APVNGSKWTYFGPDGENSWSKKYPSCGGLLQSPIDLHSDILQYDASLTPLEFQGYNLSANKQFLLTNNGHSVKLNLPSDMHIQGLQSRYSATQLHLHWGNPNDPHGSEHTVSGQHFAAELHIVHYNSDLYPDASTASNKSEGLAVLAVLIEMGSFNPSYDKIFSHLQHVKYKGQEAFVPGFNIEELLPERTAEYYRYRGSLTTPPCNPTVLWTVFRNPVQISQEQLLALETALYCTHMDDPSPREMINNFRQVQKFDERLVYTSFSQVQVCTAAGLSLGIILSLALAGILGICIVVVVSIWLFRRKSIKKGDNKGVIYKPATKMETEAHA
T2 sequence (P00915 2-261): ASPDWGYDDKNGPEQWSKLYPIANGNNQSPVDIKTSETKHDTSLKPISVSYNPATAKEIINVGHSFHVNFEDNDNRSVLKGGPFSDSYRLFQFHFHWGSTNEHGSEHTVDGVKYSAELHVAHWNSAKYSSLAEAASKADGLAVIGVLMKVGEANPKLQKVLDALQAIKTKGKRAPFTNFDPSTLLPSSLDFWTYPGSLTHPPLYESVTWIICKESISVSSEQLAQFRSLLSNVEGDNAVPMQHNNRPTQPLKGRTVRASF

The term Ki denotes the equilibrium dissociation constant of an inhibitor or competing ligand from its target. Read a low Ki as higher affinity. For the compound `CC(=NNC(=O)c1ccc(S(N)(=O)=O)cc1)c1cc2ccccc2o1` [5a, 4–(2-(1-(Benzofuran-2-yl)ethylidene)hydrazine-1-carbonyl)benzenesulfonamide], the Ki in assay [1] was determined as 60.4 nM; in assay [2], 37.4 nM; in assay [3], 33.6 nM; in assay [4] it was 10.1 nM.

For `Cc1ccc(S(=O)(=O)CC(=NNC(=O)c2ccc(S(N)(=O)=O)cc2)c2cc3cc(Br)ccc3o2)cc1` [10d, 4–(2-(1–(5-Bromobenzofuran-2-yl)-2-tosylethylidene)hydrazine-1-carbonyl)benzenesulfonamide], the Ki in assay [1] is 97.5 nM; in assay [2] it was 828 nM; in assay [3] it was 727 nM; in assay [4] it was 27.5 nM.

For `NS(=O)(=O)c1ccc(NN=C(CS(=O)(=O)c2ccccc2)c2cc3cc(Br)ccc3o2)cc1` [9b, 4–(2-(1–(5-Bromobenzofuran-2-yl)-2-(phenylsulfonyl)ethylidene)hydrazineyl)benzenesulfonamide], the Ki in assay [1] is 44.6 nM; in assay [2] it was 2160 nM; in assay [3], 888 nM; in assay [4], 33.4 nM.

Regarding `Cc1ccc(S(=O)(=O)CC(=NNC(=O)c2ccc(S(N)(=O)=O)cc2)c2cc3ccccc3o2)cc1` [10b, 4–(2-(1-(Benzofuran-2-yl)-2-tosylethylidene)hydrazine-1-carbonyl)benzenesulfonamide], the Ki is 51.1 nM in assay [1], 3920 nM in assay [2], 229 nM in assay [3] and 38.9 nM in assay [4].

Consider `Cc1ccc(S(=O)(=O)CC(=NNc2ccc(S(N)(=O)=O)cc2)c2cc3cc(Br)ccc3o2)cc1` [9c, 4–(2-(1–(5-Bromobenzofuran-2-yl)-2-tosylethylidene)hydrazineyl)benzenesulfonamide], for which the Ki amounted to 10 nM in assay [1], 2500 nM in assay [2], 571 nM in assay [3] and 16.7 nM in assay [4].

With `Cc1ccc(S(=O)(=O)CC(=NNc2ccc(S(N)(=O)=O)cc2)c2cc3ccccc3o2)cc1` [9a, 4–(2-(1-(Benzofuran-2-yl)-2-tosylethylidene)hydrazineyl)benzenesulfonamide], the Ki in assay [1] was determined as 32.8 nM; in assay [2], 1290 nM; in assay [3], 644 nM; in assay [4], 49.7 nM.

With `CC(=NNC(=O)c1ccc(S(N)(=O)=O)cc1)c1cc2cc(Br)ccc2o1` [5b, 4–(2-(1–(5-Bromobenzofuran-2-yl)ethylidene)hydrazine-1-carbonyl)benzenesulfonamide], the Ki in assay [1] turned out to be 27.7 nM; in assay [2], 63.9 nM; in assay [3] it was 44.2 nM; in assay [4] it was 32.5 nM.

For `NS(=O)(=O)c1ccc(C(=O)NN=C(CS(=O)(=O)c2ccccc2)c2cc3ccccc3o2)cc1` [10a, 4–(2-(1-(Benzofuran-2-yl)-2-(phenylsulfonyl)ethylidene)hydrazine-1-carbonyl)benzenesulfonamide], the Ki in assay [1] was found to be 76.6 nM; in assay [2] it was 4620 nM; in assay [3] it was 354 nM; in assay [4] it was 71.8 nM.

`NS(=O)(=O)c1ccc(C(=O)NN=C(CS(=O)(=O)c2ccccc2)c2cc3cc(Br)ccc3o2)cc1` [10c, 4–(2-(1–(5-Bromobenzofuran-2-yl)-2-(phenylsulfonyl)ethylidene)hydrazine-1-carbonyl)benzenesulfonamide]: the Ki in assay [1] is 85.4 nM; in assay [2], 1820 nM; in assay [3] it was 439 nM; in assay [4] it was 66.8 nM.

As to `CC(=NNc1ccc(S(N)(=O)=O)cc1)c1cc2cc(Br)ccc2o1` [4b, 4–(2-(1–(5-Bromobenzofuran-2-yl)ethylidene)hydrazineyl)benzenesulfonamide], the Ki in assay [1] stood at 48.4 nM; in assay [2] it was 92.7 nM; in assay [3], 73.5 nM; in assay [4] it was 38.8 nM.

Consider `CC(=NNc1ccc(S(N)(=O)=O)cc1)c1cc2ccccc2o1` [4a, 4–(2-(1-(Benzofuran-2-yl)ethylidene)hydrazineyl)benzenesulfonamide], for which the inhibitory constant (Ki) stood at 33.3 nM in assay [1], 163 nM in assay [2], 12.3 nM in assay [3] and 26.9 nM in assay [4].
